Test results published in ChEMBL document CHEMBL1909046, “DrugMatrix in vitro pharmacology data”.

Legend:
[1] = molecular target: cGMP-specific 3',5'-cyclic phosphodiesterase (Homo sapiens, UniProt O76074); experiment: DRUGMATRIX: Phosphodiesterase PDE5 enzyme inhibition (substrate: [3H]cGMP + cGMP); assay type: tissue-based; conditions: platelet; Not Active = under 50% inhibition at 10 µM
Substance-P receptor = Substance-P receptor (Homo sapiens, UniProt P25103); assay type: cell membranes, Membrane; conditions: cho; further: in other assays of this panel Not Active means under 50% inhibition at 10 µM
Chain of Substance-P receptor (P25103 whole entry): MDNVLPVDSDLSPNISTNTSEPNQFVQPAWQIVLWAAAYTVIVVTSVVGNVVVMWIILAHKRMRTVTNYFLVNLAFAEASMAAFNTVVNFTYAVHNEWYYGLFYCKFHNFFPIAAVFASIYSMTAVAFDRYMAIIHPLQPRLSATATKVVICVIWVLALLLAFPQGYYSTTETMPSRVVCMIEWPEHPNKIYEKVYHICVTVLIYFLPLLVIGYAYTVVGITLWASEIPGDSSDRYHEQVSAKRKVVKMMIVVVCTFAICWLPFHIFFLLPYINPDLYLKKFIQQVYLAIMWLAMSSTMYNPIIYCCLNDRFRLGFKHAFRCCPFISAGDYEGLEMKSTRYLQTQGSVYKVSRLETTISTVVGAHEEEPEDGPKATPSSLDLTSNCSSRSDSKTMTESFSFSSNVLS

D(3) dopamine receptor = D(3) dopamine receptor (Homo sapiens, UniProt P35462); experiment: DRUGMATRIX: Dopamine D3 radioligand binding (ligand: [3H] Spiperone); assay type: cell membranes, CHO, Membrane
Chain of D(3) dopamine receptor (P35462 whole entry): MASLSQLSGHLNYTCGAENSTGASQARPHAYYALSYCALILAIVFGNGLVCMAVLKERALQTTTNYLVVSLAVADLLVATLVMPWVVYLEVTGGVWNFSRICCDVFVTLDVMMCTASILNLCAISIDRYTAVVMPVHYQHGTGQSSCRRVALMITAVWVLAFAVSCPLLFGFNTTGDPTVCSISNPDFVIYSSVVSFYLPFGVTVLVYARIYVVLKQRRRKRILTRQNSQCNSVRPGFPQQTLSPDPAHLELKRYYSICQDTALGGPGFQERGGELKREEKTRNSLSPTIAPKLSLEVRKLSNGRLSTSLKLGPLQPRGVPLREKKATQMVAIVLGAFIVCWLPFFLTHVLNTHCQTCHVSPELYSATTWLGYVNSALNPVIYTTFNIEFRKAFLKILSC

[2] = DRUGMATRIX: Sodium/nucleoside co-transporter radioligand binding (ligand: nitrobenzylthioinosine); assay type: cell membranes, Cavia porcellus, Dunkin-Hartley, Cerebral cortex, Membrane; conditions: Not Active = under 50% inhibition at 10 µM
[3] = DRUGMATRIX: Leukotriene, BLT (LTB4) radioligand binding (ligand: [3H]LTB4); assay type: cell membranes, Membrane; conditions: u-937; Not Active = under 50% inhibition at 10 µM
[4] = DRUGMATRIX: Phosphodiesterase PDE3 enzyme inhibition (substrate: [3H]cAMP + cAMP); assay type: tissue-based, Homo sapiens; conditions: platelet, Not Active = under 50% inhibition at 10 µM
[5] = molecular target: Sigma non-opioid intracellular receptor 1 (Homo sapiens, UniProt Q99720); experiment: DRUGMATRIX: Sigma1 radioligand binding (ligand: [3H] Haloperidol); assay type: cell membranes, Jurkat, Membrane; conditions: Not Active = under 50% inhibition at 10 µM
Chain of Sigma non-opioid intracellular receptor 1 (Q99720 whole entry): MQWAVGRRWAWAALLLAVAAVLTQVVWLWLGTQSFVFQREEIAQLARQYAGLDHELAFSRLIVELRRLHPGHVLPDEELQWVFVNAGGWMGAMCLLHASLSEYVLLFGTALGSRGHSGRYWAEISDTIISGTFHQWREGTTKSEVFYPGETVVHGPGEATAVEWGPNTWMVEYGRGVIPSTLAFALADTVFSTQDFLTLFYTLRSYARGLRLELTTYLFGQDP

Compound	IC50 [1]	IC50 (Substance-P receptor)	IC50 (D(3) dopamine receptor; cho)	IC50 [2]	Ki [2]	IC50 [3]	Ki [3]	IC50 [4]	Ki [4]	IC50 ([5]; jurkat)	Ki [1]	Ki (Substance-P receptor)	Ki (D(3) dopamine receptor; cho)	Ki ([5]; jurkat)	IC50 ([4]; read-out: IC50)	IC50 (D(3) dopamine receptor; read-out: IC50)	Ki (D(3) dopamine receptor; read-out: Ki)	IC50 ([5]; read-out: IC50)	Ki ([5]; read-out: Ki)
CCOC(=O)[C@H](CCc1ccccc1)N[C@@H](C)C(=O)N1CCC[C@H]1C(=O)O	Not Active	Not Active	Not Active	Not Active	Not Active	Not Active	Not Active	Not Active	Not Active	Not Active	–	–	–	–	–	–	–	–	–
POLYVINYL ALCOHOL	Not Active	Not Active	Not Active	Not Active	Not Active	Not Active	Not Active	Not Active	Not Active	Not Active	Not Active	Not Active	Not Active	Not Active	–	–	–	–	–
CCC[C@@H]1C[C@@H](C(=O)N[C@@H]([C@H]2O[C@H](SC)[C@H](O)[C@@H](O)[C@H]2O)[C@H](C)Cl)N(C)C1 [CLINDAMYCIN]	Not Active	Not Active	Not Active	Not Active	Not Active	Not Active	Not Active	Not Active	Not Active	Not Active	–	–	–	–	–	–	–	–	–
CN(Cc1cnc2nc(N)nc(N)c2n1)c1ccc(C(=O)N[C@@H](CCC(=O)O)C(=O)O)cc1 [METHOTREXATE]	Not Active	Not Active	Not Active	Not Active	Not Active	Not Active	Not Active	Not Active	Not Active	Not Active	–	–	–	–	–	–	–	–	–
CO[C@@]1(NC(=O)CSCC#N)C(=O)N2C(C(=O)O)=C(CSc3nnnn3C)CS[C@@H]21 [CEFMETAZOLE]	Not Active	Not Active	Not Active	Not Active	Not Active	Not Active	Not Active	Not Active	Not Active	Not Active	–	–	–	–	–	–	–	–	–
C[C@@H]1CC[C@H]2[C@@H](C)C(=O)O[C@@H]3O[C@@]4(C)CC[C@@H]1[C@]32OO4 [ARTEMISININ]	Not Active	Not Active	Not Active	Not Active	Not Active	Not Active	Not Active	Not Active	Not Active	Not Active	–	–	–	–	–	–	–	–	–
CC(C(=O)O)c1ccc(CC2CCCC2=O)cc1 (stereo not given) [LOXOPROFEN]	Not Active	Not Active	Not Active	Not Active	Not Active	Not Active	Not Active	Not Active	Not Active	Not Active	–	–	–	–	–	–	–	–	–
CCCCCC[C@H]1C(=O)O[C@H](C)[C@H](NC(=O)c2cccc(NC=O)c2O)C(=O)O[C@@H](C)[C@@H]1OC(=O)CC(C)C [ANTIMYCIN A]	Not Active	Not Active	Not Active	Not Active	Not Active	Not Active	Not Active	Not Active	Not Active	Not Active	–	–	–	–	–	–	–	–	–
C#C[C@]1(O)CC[C@H]2[C@@H]3CCc4cc(O)ccc4[C@H]3CC[C@@]21C [ETHINYL ESTRADIOL]	Not Active	Not Active	Not Active	Not Active	Not Active	Not Active	Not Active	Not Active	Not Active	Not Active	–	–	–	–	–	–	–	–	–
CC[C@H]1OC(=O)[C@H](C)[C@@H](O[C@H]2C[C@@](C)(OC)[C@@H](O)[C@H](C)O2)[C@H](C)[C@@H](O[C@@H]2O[C@H](C)C[C@H](N(C)C)[C@H]2O)[C@](C)(O)C[C@@H](C)CN(C)[C@H](C)[C@@H](O)[C@]1(C)O [AZITHROMYCIN]	Not Active	Not Active	Not Active	Not Active	Not Active	Not Active	Not Active	Not Active	Not Active	Not Active	–	–	–	–	–	–	–	–	–
COc1ccc2cc(CCC(C)=O)ccc2c1 [NABUMETONE]	Not Active	Not Active	Not Active	Not Active	Not Active	Not Active	Not Active	Not Active	Not Active	Not Active	–	–	–	–	–	–	–	–	–
CCCCC1C(=O)N(c2ccccc2)N(c2ccccc2)C1=O [PHENYLBUTAZONE]	Not Active	Not Active	Not Active	Not Active	Not Active	Not Active	Not Active	Not Active	Not Active	Not Active	–	–	–	–	–	–	–	–	–
C=C1/C(=C\C=C2/CCC[C@]3(C)[C@@H]([C@H](C)CCCC(C)C)CC[C@@H]23)C[C@@H](O)C[C@@H]1O [ALFACALCIDOL]	Not Active	Not Active	Not Active	Not Active	Not Active	Not Active	Not Active	Not Active	Not Active	Not Active	–	–	–	–	–	–	–	–	–
NC(=O)N1c2ccccc2C=Cc2ccccc21 [CARBAMAZEPINE]	Not Active	Not Active	Not Active	Not Active	Not Active	Not Active	Not Active	Not Active	Not Active	Not Active	–	–	–	–	–	–	–	–	–
COc1ccc(Cc2nccc3cc(OC)c(OC)cc23)cc1OC [PAPAVERINE]	Not Active	Not Active	Not Active	Not Active	Not Active	Not Active	Not Active	–	–	Not Active	–	–	–	–	665 nM	–	–	–	–
CNC(=C[N+](=O)[O-])NCCSCc1csc(CN(C)C)n1 [NIZATIDINE]	Not Active	Not Active	Not Active	Not Active	Not Active	Not Active	Not Active	Not Active	Not Active	Not Active	–	–	–	–	–	–	–	–	–
COc1ccccc1OCC(O)CO (stereo not given) [GUAIFENESIN]	Not Active	Not Active	Not Active	Not Active	Not Active	Not Active	Not Active	Not Active	Not Active	Not Active	–	–	–	–	–	–	–	–	–
O=C(c1ccccc1Cl)N1CCC(Cc2ccccc2)CC1	Not Active	Not Active	Not Active	Not Active	Not Active	Not Active	Not Active	Not Active	Not Active	Not Active	–	–	–	–	–	–	–	–	–
Cc1cccc(Nc2cc(Cl)nc(SCC(=O)O)n2)c1C [PIRINIXIC ACID]	Not Active	Not Active	Not Active	Not Active	Not Active	Not Active	Not Active	Not Active	Not Active	Not Active	–	–	–	–	–	–	–	–	–
CC(CCc1ccc(O)cc1)NCCc1ccc(O)c(O)c1 (stereo not given) [DOBUTAMINE]	Not Active	Not Active	–	Not Active	Not Active	Not Active	Not Active	Not Active	Not Active	–	–	–	–	–	–	4990 nM	1690 nM	2520 nM	1060 nM
CC(C)(Sc1cc(C(C)(C)C)c(O)c(C(C)(C)C)c1)Sc1cc(C(C)(C)C)c(O)c(C(C)(C)C)c1 [PROBUCOL]	Not Active	Not Active	Not Active	Not Active	Not Active	Not Active	Not Active	Not Active	Not Active	Not Active	–	–	–	–	–	–	–	–	–
C/C=C\c1ccc(O)c(OC)c1 [ISOEUGENOL]	Not Active	Not Active	Not Active	Not Active	Not Active	Not Active	Not Active	Not Active	Not Active	Not Active	–	–	–	–	–	–	–	–	–
[N-]=[N+]=CC(=O)OC[C@H](N)C(=O)O [AZASERINE]	Not Active	Not Active	Not Active	Not Active	Not Active	Not Active	Not Active	Not Active	Not Active	Not Active	–	–	–	–	–	–	–	–	–
CCOC(=O)C1=C(C)NC(C)=C(C(=O)OC)C1c1cccc(Cl)c1Cl (stereo not given) [FELODIPINE]	Not Active	Not Active	Not Active	Not Active	Not Active	Not Active	Not Active	Not Active	Not Active	Not Active	–	–	–	–	–	–	–	–	–
C[C@H](C(=O)O)c1cccc(C(=O)c2ccccc2)c1 [DEXKETOPROFEN]	Not Active	Not Active	Not Active	Not Active	Not Active	Not Active	Not Active	Not Active	Not Active	Not Active	–	–	–	–	–	–	–	–	–
Cc1cn[nH]c1 [FOMEPIZOLE]	Not Active	Not Active	Not Active	Not Active	Not Active	Not Active	Not Active	Not Active	Not Active	Not Active	–	–	–	–	–	–	–	–	–
O=c1cc(-c2ccccc2)oc2ccc3ccccc3c12 [BETA-NAPHTHOFLAVONE]	Not Active	Not Active	Not Active	Not Active	Not Active	Not Active	Not Active	Not Active	Not Active	Not Active	–	–	–	–	–	–	–	–	–
